In brackets after ≈: the same amount, converted by molar mass. Structures can show the parent of a compound that is named as a salt.
Columns and labels:
E. coli 1346 = assay: Antibacterial activity of the products per se, serial dilution method in liquid medium (Test E); format: cell-based; settings: test E, product per se
Description: The antibacterial activity of the products per se is illustrated on the basis of Table 3 hereinafter, the minimum inhibitory concentration […] in vitro against E. coli 1346 being determined using the serial dilution method in liquid medium: […]

[1] = test system: Citrobacter freundii 1982; assay: MIC in vitro of a 1:4 combination of ceftriaxone with a compound of formula I (Test D); format: cell-based; settings: test D
Method: The minimum inhibitory concentration in vitro ([…]) of a 1:4 combination of ceftriaxone with a compound of formula I against Citrobacter freundii 1982 was measured and compiled in Table 2 hereinafter.

[2] = Table 4, 1:4 combination of ceftriaxone with the compound

Row | SMILES | MIC E. coli 1346 (E) (E. coli 1346; Table 4) [µg/mL] | MIC C. freundii 1982 (D) [1, 2] [µg/mL] | MIC E. coli 1346 (E) (E. coli 1346; Table 5, particularly preferred products) [µg/mL] | MIC C. freundii 1982 (D) ([1]; Table 5, particularly preferred products, 1:4 combination with ceftriaxone) [µg/mL]
1 | CC(=O)N1C[C@H]2CC(CSc3nnnn3CC(=O)NCCc3ccccc3)=C(C(=O)O)N3C(=O)[C@@H]1[C@@H]23 [80(a), (1aS,3aR,6bR)-2-Acetyl-1-oxo-5-[1-(phenethylcarbamoylmethyl)-1H-tetrazol-5-ylsulphanylmethyl]-1a,2,3,3a,4,6b-hexahydro-1H-2,6a-diazacyclobut[cd]indene-6-carboxylic acid sodium salt] | 0.5 | 4 | – | –
2 | CC(=O)N1C[C@H]2CC(CSc3nc[nH]n3)=C(C(=O)O)N3C(=O)[C@@H]1[C@@H]23 [76(a), (1aS,3aR,6bR)-2-Acetyl-1-oxo-5-(1H-1,2,4-triazol-3-ylsulphanylmethyl)-1a,2,3,3a,4,6b-hexahydro-1H-2,6a-diazacyclobut[cd]indene-6-carboxylic acid sodium salt] | 2 | 1 | – | –
3 | CNC(=O)OCC1=C(C(=O)O)N2C(=O)[C@@H]3[C@H]2[C@H](C1)CN3C(=O)C(F)(F)F [98(b), (1aS,3aR,6bR)-5-Methylcarbamoyloxymethyl-1-oxo-2-trifluoroacetyl-1a,2,3,3a,4,6b-hexahydro-1H-2,6a-diazacyclobut[cd]indene-6-carboxylic acid sodium salt] | 2 | 1 | – | –
4 | Cn1ccnc1SCC1=C(C(=O)O)N2C(=O)[C@H]3NC[C@@H](S1)[C@H]32 [40(c), (1aS,3aR,6bS)-5-(1-Methyl-imidazol-2-ylsulphanyl-methyl)-1-oxo-4-thia-1,1a,2,3,3a,6b-hexahydro-2,6a-diazacyclobut[cd]indene-6-carboxylic acid] | > 32 | 0.5 | – | –
5 | CC(=O)N1C[C@H]2CC(COC(=O)NCc3ccc(O)cc3)=C(C(=O)O)N3C(=O)[C@@H]1[C@@H]23 [102(a), (1aS,3aR,6bR)-2-Acetyl-5-[(4-hydroxy-benzyl)-carbamoyloxymethyl]-1-oxo-1a,2,3,3a,4,6b-hexahydro-1H-2,6a-diazacyclobut[cd]indene-6-carboxylic acid sodium salt] | 0.5 | 2 | – | –
6 | CC(=O)N1C[C@H]2OC(CSc3ccncc3)=C(C(=O)O)N3C(=O)[C@@H]1[C@@H]23 [32(a), (1aS,3aR,6bS)-2-Acetyl-5-(pyridin-4-ylsulphanylmethyl)-1-oxo-1,1a,2,3,3a,6b-hexahydro-4-oxa-2,6a-diazacyclobut[cd]indene-6-carboxylic acid sodium salt] | > 32 | 16 | – | –
7 | O=C(Cn1nnnc1SCC1=C(C(=O)O)N2C(=O)[C@@H]3[C@H]2[C@H](C1)CN3C(=O)C(F)(F)F)Nc1ccc(O)cc1 [78(b), (1aS,3aR,6bR)-5-[1-(4-Hydroxy-phenylcarbamoylmethyl)-1H-tetrazol-5-ylsulphanylmethyl]-1-oxo-2-trifluoroacetyl-1a,2,3,3a,4,6b-hexahydro-1H-2,6a-diazacyclobut[cd]indene-6-carboxylic acid sodium salt] | 1 | 1 | – | –
8 | Cn1nnnc1CSCC1=C(C(=O)O)N2C(=O)[C@H]3NC[C@@H](S1)[C@H]32 [Example 43, (1aS,3aR,6bS)-5-(1-Methyl-1H-tetrazol-5-ylmethylsulphanylmethyl)-1-oxo-4-thia-1,1a,2,3,3a,6 b-hexahydro-2,6a-diazacyclobut-[cd]indene-6-carboxylic acid sodium salt] | > 32 | 4 | – | –
9 | Cn1nc[n+](C)c1CSC1=C(C(=O)[O-])N2C(=O)[C@@H]3[C@H]2[C@H](C1)CN3C(=O)Nc1ccc(O)cc1 [3(q), (1aS,3aR,6bR)-5-[(1,4-Dimethyl-1H-1,2,4-triazol-5-ylio)methylsulphanyl]-2-(4-hydroxy-phenylcarbamoyl)-1-oxo-1a,2,3,3a,4,6b-hexahydro-1H-2,6a-diazacyclobut[cd]indene-6-carboxylate] | > 32 | 2 | – | –
10 | Cn1nnnc1SCC1=C(C(=O)O)N2C(=O)[C@@H]3[C@H]2[C@H](C1)CN3CC(=O)Nc1ccc(O)cc1 [61(b), (1aS,3aR,6bR)-2-(4-Hydroxy-phenylcarbamoylmethyl)-5-(1-methyl-1H-tetrazol-5-ylsulphanylmethyl)-1-oxo-1a,2,3,3a,4,6b-hexahydro-1H-2,6a-diazacyclobut[cd]indene-6-carboxylic acid sodium salt] | 16 | 2 | – | –
11 | CC(=O)N1C[C@H]2OC(CSc3nnnn3C)=C(C(=O)O)N3C(=O)[C@@H]1[C@@H]23 [Example 35, (1aS,3aR,6bS)-2-Acetyl-5-(1-methyl-1H-tetrazol-5-yl-sulphanylmethyl)-1-oxo-1,1a,2,3,3a,6b-hexahydro-4-oxa-2,6 a-diazacyclobut[cd]indene-6-carboxylic acid sodium salt] | – | – | 0.5 | 1
12 | O=C([O-])C1=C(CSc2cc[n+](Cc3ccccc3)cc2)C[C@@H]2CN(C(=O)C(F)(F)F)[C@@H]3C(=O)N1[C@H]23 [52(d), (1aS,3aR,6bR)-5-(1-Benzyl-pyridin-4-yliosulphanylmethyl)-1-oxo-2-trifluoroacetyl-1a,2,3,3a,4,6b-hexahydro-1H-2,6a-diazacyclobut[cd]indene-6-carboxylate] | 2 (≈ 3.97 µM) | 1 | – | –
13 | O=C(O)C1=C(CSc2ccncc2)O[C@@H]2CN[C@@H]3C(=O)N1[C@@H]32 [Example 29(b), (1aS,3aR,6bS)-1-Oxo-5-(pyridin-4-ylsulphanylmethyl)-1,1a,2,3,3a,6b-hexahydro-4-oxa-2,6a-diazacyclobut[cd]indene-6-carboxylic acid] | > 16 | 2 | – | –
14 | NC(=O)Cn1nnnc1SCC1=C(C(=O)O)N2C(=O)[C@@H]3[C@H]2[C@@H](CN3C(=O)C(F)(F)F)O1 [Example 39, (1aS,3aR,6bS)-5-(1-Carbamoylmethyl-1H-tetrazol-5-ylsulphanylmethyl)-1-oxo-2-trifluoroacetyl-1,1a,2,3,3a,6b-hexahydro-4-oxa-2,6a-diazacyclobut[cd]indene-6-carboxylic acid sodium salt] | 8 | 2 | – | –
15 | CO/N=C(\C(=O)N1C[C@H]2CC(COC(N)=O)=C(C(=O)O)N3C(=O)[C@@H]1[C@@H]23)c1csc(N)n1 [Example 60, (Z)-(1aS,3aR,6bR)-2-[(2-Amino-thiazol-4-yl)-methoxyimino-acetyl]-5-carbamoyloxymethyl-1-oxo-1a,2,3,3a,4,6b-hexahydro-1H-2,6a-diazacyclobut[cd]indene-6-carboxylic acid] | > 32 | 2 | – | –
16 | O=C(Nc1ccc(O)cc1)OCC1=C(C(=O)O)N2C(=O)[C@@H]3[C@H]2[C@H](C1)CN3C(=O)C(F)(F)F [90(b), (1aS,3aR,6bR)-5-(4-Hydroxy-phenylcarbamoyloxymethyl)-2-trifluoroacetyl-1-oxo-1a,2,3,3a,4,6b-hexahydro-1H-2,6a-diazacyclobut[cd]indene-6-carboxylic acid sodium salt] | 0.5 | 1 | – | –
17 | Cc1nnc(SCC2=C(C(=O)O)N3C(=O)[C@@H]4[C@H]3[C@@H](CN4C(=O)Nc3ccc(O)cc3)O2)s1 [Example 31(a), (1aS,3aR,6bS)-2-(4-Hydroxy-phenylcarbamoyl)-5-(5-methyl-1,3,4-thiadiazol-2-ylsulphanylmethyl)-1-oxo-1,1a,2,3,3a,6 b-hexahydro-4-oxa-2,6a-diazacyclobut[cd]indene-6-carboxylic acid sodium salt] | 8 | 0.5 | – | –
18 | Cc1nnc(SCC2=C(C(=O)O)N3C(=O)[C@@H]4[C@H]3[C@@H](CN4C(=O)Nc3ccc(C(N)=O)cc3)O2)s1 [31(b), (1aS,3aR,6bS)-2-(4-Carbamoyl-phenylcarbamoyl)-5-(S-methyl-1,3,4-thiadiazol-2-ylsulphanylmethyl)-1-oxo-1,1a,2,3,3a,6b-hexahydro-4-oxa-2,6a-diazacyclobut[cd]indene-6-carboxylic acid sodium salt] | 8 | 0.2 | – | –
19 | Cc1nnc(SCC2=C(C(=O)O)N3C(=O)[C@@H]4[C@H]3[C@H](C2)CN4C(=O)C(F)(F)F)s1 [65(b), (1aS,3aR,6bR)-5-(S-Methyl-1,3,4-thiadiazol-2-ylsulphanylmethyl)-1-oxo-2-trifluoroacetyl-1a,2,3,3a,4,6b-hexahydro-1H-2,6a-diazacyclobut[cd]indene-6-carboxylic acid sodium salt] | 2 | 1 | – | –
20 | COC(=O)CN1C[C@H]2CC(COC(N)=O)=C(C(=O)O)N3C(=O)[C@@H]1[C@@H]23 [59(b), (1aS,3aR,6bR)-5-Carbamoyloxymethyl-2-methoxycarbonylmethyl-1-oxo-1a,2,3,3a,4,6b-hexahydro-1H-2,6a-diazacyclobut[cd]indene-6-carboxylic acid sodium salt] | 2 | 0.5 | – | –
